In one test the test system is MV4;11 cells. Put plainly: In vitro MV4;11 cell proliferation inhibition (MTT method). The format is cell-based. Particulars: Homo sapiens. The source says:
The in vitro inhibitory effect of the synthesized compounds on cell proliferation was investigated.
The trade name of MTT was thiazole blue, which was a tetrazolium salt of a dye that could accept hydrogen atoms. […] Dimethyl sulfoxide could dissolve blue-purple complexes in cells, and its light absorption value could be measured at 490-550 nm wavelength with an enzyme-linked immunosorbent detector, which could indirectly reflect the number of cells. Within a certain range of the cell number, the amount of MTT crystals formed was proportional to the number of cells. The drug to be tested was successively diluted to different concentrations and added to a 96-well plate. The OD value was determined after the drug acted for a certain time. The size of the OD value could reflect the number of living cells, and its IC50 value was calculated with SPSS19.0.
Suspension of cells: Cells were […] by centrifugation and counted. A certain density of cell suspension was formulated with a complete culture medium, blown evenly, inoculated on a 96-well plate, 100 μL per well, and then cultured in a CO2 incubator.
An appropriate amount of the drug was added to a calculated amount of DMSO and dissolved. The resulting mixture was dispensed and stored at −20° C. The formulation concentration was 10 mM.
The stock solution of the compound having a concentration of 10 mM was diluted into different concentrations (8 concentrations) of solutions of the compound in DMSO (3-fold dilution, 20×final concentration). Each concentration of solutions (10 μL) of the compound in DMSO was respectively diluted with cell culture media (90 μL) to formulate working solutions (2×final concentration). Each concentration of working solutions (100 μL) of the compound was added to the 96-well plate inoculated with cells (1×final concentration, the highest final concentration is 1000 nM). The resulting plate continued to be cultured in a CO2 incubator.
The 96-well plate was taken out, and the density of cells was observed under a microscope. The test was performed with the MTT method.
MTT method: 20 μL of MTT was added to each well; the plate was cultured for about 4 hours in the incubator; the liquid in the well was discarded; 150 μL of DMSO was added into each well; the plate was placed in a shaker and shaken for 5-10 minutes, and the test was performed with a microplate reader at a wavelength of 550 nm. 7. Data analysis: IC50 value of the drug was calculated with SPSS19.0 statistical software.
For orientation: Tetrazolium assays rely on reduction of a dye to a coloured formazan, in cell work by metabolically active cells.

Another test deals with hERG channel (Homo sapiens (Human), UniProt Q12809). Put plainly: In vitro hERG inhibitory activity, whole-cell patch-clamp on CHO-K1 cell line stably expressing the hERG channel. From the text: Rapid delayed rectifier current (IKr) was mainly mediated by the hERG ion channel and involved in human cardiomyocyte repolarization. Inhibition of IKr was the leading cause of the clinical QT interval prolongation syndrome, even acute cardiac dysrhythmia, and even sudden death. By utilizing a whole-cell patch-clamp technology, the blocking effect of a compound on the hERG channel was detected on a CHO-K1 cell line stably expressing the hERG channel, and the half inhibition concentration IC50 of the compound was determined. It was used as a part of the comprehensive cardiac safety assessment, and it was initially evaluated in the safety in vitro screen for cardiotoxicity.
Sequence of hERG channel (Q12809 whole entry): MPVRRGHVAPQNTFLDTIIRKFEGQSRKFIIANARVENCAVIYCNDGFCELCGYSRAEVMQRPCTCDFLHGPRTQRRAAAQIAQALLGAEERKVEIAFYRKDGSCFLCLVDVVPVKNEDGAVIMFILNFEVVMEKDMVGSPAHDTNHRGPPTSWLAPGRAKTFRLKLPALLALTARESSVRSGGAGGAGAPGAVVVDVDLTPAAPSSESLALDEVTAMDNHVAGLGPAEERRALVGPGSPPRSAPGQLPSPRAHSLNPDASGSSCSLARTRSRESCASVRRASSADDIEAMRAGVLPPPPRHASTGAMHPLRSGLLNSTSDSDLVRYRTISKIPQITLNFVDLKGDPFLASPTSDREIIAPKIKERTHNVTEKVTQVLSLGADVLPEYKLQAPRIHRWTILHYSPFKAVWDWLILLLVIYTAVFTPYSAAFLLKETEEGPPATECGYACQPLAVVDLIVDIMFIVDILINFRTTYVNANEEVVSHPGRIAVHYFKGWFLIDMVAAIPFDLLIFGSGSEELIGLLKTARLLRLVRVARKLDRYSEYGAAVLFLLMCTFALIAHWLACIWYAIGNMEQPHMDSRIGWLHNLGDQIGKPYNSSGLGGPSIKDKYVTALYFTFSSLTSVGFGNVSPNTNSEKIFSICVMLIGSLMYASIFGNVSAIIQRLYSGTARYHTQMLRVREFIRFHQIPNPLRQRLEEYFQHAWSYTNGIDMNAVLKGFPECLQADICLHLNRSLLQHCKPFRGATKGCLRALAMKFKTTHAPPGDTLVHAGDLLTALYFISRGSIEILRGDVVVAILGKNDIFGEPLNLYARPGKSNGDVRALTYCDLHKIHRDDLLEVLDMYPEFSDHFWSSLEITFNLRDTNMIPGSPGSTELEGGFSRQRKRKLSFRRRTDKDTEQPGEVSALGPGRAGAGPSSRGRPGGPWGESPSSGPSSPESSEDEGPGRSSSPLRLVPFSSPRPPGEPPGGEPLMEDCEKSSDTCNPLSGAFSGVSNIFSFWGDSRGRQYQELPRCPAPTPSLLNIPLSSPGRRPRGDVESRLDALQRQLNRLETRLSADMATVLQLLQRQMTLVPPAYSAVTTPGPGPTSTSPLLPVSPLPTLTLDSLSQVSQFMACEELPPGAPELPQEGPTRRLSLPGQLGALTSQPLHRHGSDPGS
This assay included the following aspects: • The hERG current was recorded on the CHO-K1 cell line stably expressing the hERG channel by utilizing the manual patch-clamp technology; • The inhibition rate at each concentration was calculated according to the hERG tail current; • The measurement was performed at 5 concentrations for each compound to calculate the IC50 value; • 3 cells were tested at each concentration; • One positive control drug was provided.
The hERG current was recorded by utilizing a whole-cell patch-clamp technology. The cell suspension was added to a dish, and the dish was placed on the object stage of an upright microscope. After adhesion of the cells, perfusion was performed with an extracellular fluid at a flow rate of […]. A glass microelectrode was pulled with a microelectrode puller via a two-step process and the pipette rip resistance was between 2-5 MΩ. After the whole-cell record was set up, the clamp potential was held at −80 mV. The cells were depolarized to +60 mV by applying a voltage stimulus and then repolarized to −50 mV to elicit the hERG tail current. All recordation was conducted after the current became stable. The extracellular perfusion administration was started from the lowest concentration, staying for 5-10 min at each concentration until the current was stable, and then conducted with the next concentration.
Background: hERG is a cardiac potassium channel; its block is linked to QT prolongation.

By IC50 is commonly meant the concentration that inhibits the measured activity by half. A higher IC50 goes with lower potency.

In the test on MV4;11 cells, `COc1cc(F)ccc1-c1cc(NC(=O)[C@H]2CCC[C@@H](NC(=O)CCO)C2)ncc1F` [Compound 50] yielded an IC50 of 37 nM.

`COc1cc(F)ccc1-c1cc(NC(=O)N2CCC[C@@H](NC(C)=O)C2)ncc1F` [Compound 70] came in with an IC50 with MV4;11 cells of 259 nM.

In the test on MV4;11 cells, `COc1cc(F)ccc1-c1cc(NC(=O)[C@H]2CCC[C@@H](NC(=O)CS)C2)ncc1F` [Compound 81] displayed an IC50 of 67 nM.

In the test on MV4;11 cells, `COc1cc(F)ccc1-c1cc(NC(=O)[C@H]2CCC[C@@H](NC(=O)C3(C)CC3)C2)ncc1F` [Compound 53] returned an IC50 of 10 nM.

In the case of `COc1cc(F)ccc1-c1cc(NC(=O)[C@H]2CCC[C@@H](NC(=O)C3(C#N)CCN(C)CC3)C2)ncc1F` [Compound 82], half-maximal inhibition in the test with MV4;11 cells (IC50) was put at 21 nM.

Regarding `COc1ccccc1-c1cc(NC(=O)[C@H]2CCC[C@@H](NC(C)=O)C2)ncc1F` [Compound 17], the IC50 against hERG channel was > 30000 nM; in the test with MV4;11 cells it was 25 nM.

In the case of `CNC(=O)N[C@@H]1CCC[C@H](C(=O)Nc2cc(-c3ccc(F)cc3OC)c(F)cn2)C1` [Compound 37], the IC50 on hERG channel is > 30000 nM; in the test with MV4;11 cells it was 52 nM.

The compound `COc1cc(F)ccc1-c1cc(NC(=O)[C@H]2CCC[C@@H](NC(=O)C(=O)C3CC3)C2)ncc1F` [Compound 63] displayed an IC50 in the test on MV4;11 cells of 96 nM.

For the compound `COc1cc(F)ccc1-c1cc(NC(=O)[C@H]2CCC[C@@H](NC(=O)CN)C2)ncc1F` [Compound 56], the IC50 in the test on MV4;11 cells is 20 nM.

In the test on MV4;11 cells, `COc1cc(F)ccc1-c1cc(NC(=O)[C@H]2CCC[C@@H](NC(=O)C(F)(F)F)C2)ncc1F` [Compound 42] returned an IC50 of 17 nM.

`COc1cc(F)ccc1-c1cc(NC(=O)[C@H]2CCC[C@@H](NC(=O)C3(C#N)CN(C)C3)C2)ncc1F` [Compound 77] returned an IC50 in the test on MV4;11 cells of 21 nM.

As to `CC(=O)N[C@@H]1CCC[C@H](C(=O)Nc2cc(-c3cccc4ccoc34)c(F)cn2)C1` [Compound 19], the results for the IC50 at hERG channel and in the test with MV4;11 cells were > 30000 nM and 26 nM, respectively.

As for `COc1cc(F)ccc1-c1cc(NC(=O)[C@H]2CCC[C@@H](NC(=O)C3CC3)C2)ncc1F` [Compound 62], in the test with MV4;11 cells, half-maximal inhibition (IC50) required 6 nM.

The compound `COc1cc(F)ccc1-c1cc(NC(=O)[C@H]2CCC[C@@H](NC(=O)CNC(C)=O)C2)ncc1F` [Compound 57] had an IC50 in the test with MV4;11 cells of 100 nM.

On to `CC(=O)N[C@@H]1CCC[C@H](C(=O)Nc2cc(-c3ccnc4c3ccn4C)c(F)cn2)C1` [Compound 24], for which half-maximal inhibition in the test on MV4;11 cells (IC50) was put at 119 nM.

`COc1cc(F)ccc1-c1cc(NC(=O)[C@H]2CCC[C@@H](NC(=O)C3(C#N)CCOCC3)C2)ncc1F` [Compound 35] gave an IC50 in the test with MV4;11 cells of 32 nM.

Turning to `COc1cc(F)ccc1-c1cc(NC(=O)[C@H]2CCC[C@@H](NC(=O)C3(F)CC3)C2)ncc1F` [Compound 54], 12 nM corresponded to half-maximal inhibition in the test with MV4;11 cells (IC50).

Regarding `CC(=O)N[C@@H]1CCC[C@H](C(=O)Nc2cc(-c3ccc(F)cc3OC(C)C)c(F)cn2)C1` [Compound 8], the values for the IC50 against hERG channel and in the test on MV4;11 cells were > 30000 nM and 45 nM, respectively.

`CC(=O)N[C@@H]1CCC[C@H](C(=O)Nc2cc(-c3ccnc4[nH]ccc34)c(F)cn2)C1` [Compound 23] registered an IC50 in the test on MV4;11 cells of 23 nM.

In turn, `COc1cc(F)ccc1-c1cc(NC(=O)[C@H]2CCC[C@@H](Nc3nccs3)C2)ncc1F` [Compound 69] displayed an IC50 in the test with MV4;11 cells of 28 nM.

Turning to `COc1cc(F)c(F)cc1-c1cc(NC(=O)[C@H]2CCC[C@@H](NS(C)(=O)=O)C2)ncc1F` [Compound 26], it took 89 nM to reach half-maximal inhibition with MV4;11 cells (IC50).

Regarding `COc1cc(F)ccc1-c1cc(NC(=O)[C@H]2CCC[C@@H](NC(=O)c3ccccn3)C2)ncc1F` [Compound 43], the IC50 against hERG channel is > 30000 nM; in the test on MV4;11 cells, 22 nM.

`CC(=O)N[C@@H]1CCC[C@H](C(=O)Nc2cc(-c3ccc(F)nc3F)c(F)cn2)C1` [Compound 20] registered an IC50 in the test with MV4;11 cells of 67 nM.

In the case of `COc1cc(F)ccc1-c1cc(NC(=O)[C@H]2CCC[C@@H](NC(=O)N(C)C)C2)ncc1F` [Compound 38], it took 10 nM to reach half-maximal inhibition with MV4;11 cells (IC50).

Regarding `COc1cc(F)ccc1-c1cc(NC(=O)[C@H]2CCC[C@@H](NC(=O)[C@H](C)O)C2)ncc1F` [Compound 48], the IC50 is > 30000 nM against hERG channel and 26 nM with MV4;11 cells.

`COc1cc(F)ccc1-c1cc(NC(=O)[C@H]2CCC[C@@H](NC(=O)[C@@H](CC(C)C)NC(C)=O)C2)ncc1F` [Compound 59] registered an IC50 in the test with MV4;11 cells of 6 nM.

For `COc1c(-c2cc(NC(=O)[C@H]3CCC[C@@H](NC(C)=O)C3)ncc2F)ccc(F)c1F` [Compound 6], the IC50 in the test with MV4;11 cells is 179 nM.

In the case of `COc1cc(F)ccc1-c1cc(NC(=O)[C@H]2CCC[C@@H](NC(=O)C3(C#N)CCC3)C2)ncc1F` [Compound 34], in the test with MV4;11 cells, the IC50 is 21 nM.

For the compound `COc1cc(F)ccc1-c1cc(NC(=O)[C@H]2CCC[C@@H](NC(=O)C3(O)CC3)C2)ncc1F` [Compound 51], 13 nM corresponded to half-maximal inhibition with MV4;11 cells (IC50).

With `COc1cc(F)ccc1-c1cc(NC(=O)[C@H]2CCC[C@@H](NC(=O)C3COC3)C2)ncc1F` [Compound 52], the IC50 in the test with MV4;11 cells was 8 nM.

In the case of `COc1cc(F)ccc1-c1cc(NC(=O)[C@H]2CCC[C@@H](NC(=O)CC#N)C2)ncc1F` [Compound 32], the IC50 against hERG channel is > 30000 nM; in the test on MV4;11 cells, 11 nM.

`COc1cc(F)ccc1-c1cc(NC(=O)[C@H]2CCC[C@@H](NC(=O)/C=C/CN(C)C)C2)ncc1F` [Compound 66] had an IC50 with MV4;11 cells of 34 nM.

In turn, `COc1cc(F)ccc1-c1cc(NC(=O)[C@H]2CCC[C@@H](NC(=O)C3(C(F)(F)F)CC3)C2)ncc1F` [Compound 55] registered an IC50 with MV4;11 cells of 14 nM.

In the test with MV4;11 cells, `C=CC(=O)N[C@@H]1CCC[C@H](C(=O)Nc2cc(-c3ccc(F)cc3OC)c(F)cn2)C1` [Compound 64] gave an IC50 of 9 nM.

`COc1cc(F)ccc1-c1cc(NC(=O)[C@H]2CCC[C@@H](NC(C)=O)C2)ncc1Cl` [Compound 71] displayed an IC50 in the test on MV4;11 cells of 16 nM.

Regarding `COc1cc(O)ccc1-c1cc(NC(=O)[C@H]2CCC[C@@H](NC(C)=O)C2)ncc1F` [Compound 15], inhibition with MV4;11 cells was half-maximal at 9 nM (IC50).

Compound `COc1cc(F)ccc1-c1cc(NC(=O)[C@H]2CCC[C@@H](NC(=O)[C@H](CC(C)C)NC(C)=O)C2)ncc1F` [Compound 58] registered an IC50 with MV4;11 cells of 86 nM.

The compound `CC(=O)N[C@@H]1CCC[C@H](C(=O)Nc2cc(-c3cccc4[nH]ccc34)c(F)cn2)C1` [Compound 22] returned an IC50 with MV4;11 cells of 36 nM.

In the test with MV4;11 cells, `COc1cc(F)ccc1-c1cc(NC(=O)[C@H]2CCC[C@@H](NC(=O)COC(C)=O)C2)ncc1F` [Compound 47] registered an IC50 of 13 nM.

Turning to `C#CC(=O)N[C@@H]1CCC[C@H](C(=O)Nc2cc(-c3ccc(F)cc3OC)c(F)cn2)C1` [Compound 65], inhibition with MV4;11 cells was half-maximal at 6 nM (IC50).

`COc1cc(F)ccc1-c1cc(NC(=O)[C@H]2CCC[C@@H](NC(=O)Nc3cc(C)no3)C2)ncc1F` [Compound 41] had an IC50 with MV4;11 cells of 45 nM.

In the test with MV4;11 cells, `COc1cc(F)ccc1-c1cc(NC(=O)[C@H]2CCC[C@@H](NC(=O)[C@@H](C)O)C2)ncc1F` [Compound 49] registered an IC50 of 72 nM.

`CCOCC(=O)N[C@@H]1CCC[C@H](C(=O)Nc2cc(-c3ccc(F)cc3OC)c(F)cn2)C1` [Compound 46]: in the test with MV4;11 cells, the IC50 was 17 nM.

In the test with MV4;11 cells, `COc1cc(F)ccc1-c1cc(NC(=O)[C@H]2CCC[C@@H](NC(=O)C(C)(C)O)C2)ncc1F` [Compound 83] gave an IC50 of 14 nM.

Consider `COc1cc(F)ccc1-c1cc(NC(=O)[C@H]2CCC[C@@H](NC(=O)CC3CC3)C2)ncc1F` [Compound 61], for which the IC50 in the test on MV4;11 cells came to 48 nM.

As for `COc1cc(F)ccc1-c1cc(NC(=O)[C@H]2CCC[C@@H](NC(=O)CN(C)C)C2)ncc1F` [Compound 40], in the test with MV4;11 cells, the IC50 was determined as 8 nM.

In the test on MV4;11 cells, `COc1cc(F)ccc1-c1cc(NC(=O)[C@H]2CCC[C@@H](NC(=O)C3CCN(C)CC3)C2)ncc1F` [Compound 60] showed an IC50 of 12 nM.

(Values after US12570607B2, “Compound as cyclin-dependent kinase 9 inhibitor and use thereof” (CSPC Zhongqi Pharmaceutical Technology (Shijiazhuang) Co., …, priority 2019, dated 2026).)
